From patent publication US9499823B2, “Constructs expressing chimeric receptors and use thereof for the controlled activation of defence response to pathogens in plants” (priority 2009, dated 2016)
Where no end group is shown, it is not given here.

Columns and labels:
[1] = tested on: agroinfiltrated Arabidopsis thaliana Col-0 leaves; assay: Receptor internalization: decrease of GFP fluorescence by confocal microscopy in agroinfiltrated Arabidopsis Col-0 leaves; format: cell-based; settings: 10 μM flg22, 30 min
Experimental: PCR templates are shown in bold. Primers listed in Table 1 are shown in capital letters. Stable transgenic lines were generated using the standard A. tumefaciens-mediated gene transfer procedure of inflorescence infiltration (Bent et al., 2006). Independent transformed plant pools were kept separate for the selection of independent transgenic lines based on their phosphinotrycin resistance and leaves GFP fluorescence. Tobacco and Arabidopsis transient transgenic lines were prepared by infiltrating with Agrobacterium tumefaciens carrying the individual constructs, as described by Reca (2008).
The GFP-dependent fluorescence was monitored from 2 to 4 days post infection in cells of the lower epidermis. Pieces of leaf were randomly cut from the infected area and mounted in water or supplemented with elicitors for microscopic observations. Flg22 and elfl8 were used at 10 μM while oligosaccharides were used at 100 μg/mL. Materials were analyzed using a Leica DM IRE epifluorescence microscope equipped with a digital cooled camera (DFC350FX R2; Leica). GFP fluorescence was excited with a 488-nm laser line, and emitted fluorescence was collected at 543-nm. The Leica Confocal Software and Adobe Photoshop 5.0 were used for post-acquisition image processing. All samples were imaged with the 40× or 100× oil objectives. Pictures were taken in Kahlman frame giving an average of 16 scans for the dynamics of internalization and 4 scans for the cellular localizations. […]
The dynamics of fluorescence localization upon treatment with elicitors was then studied. Whereas endocytosis of surface receptors upon ligand binding often occurs in animals (Warren and Landgraf 2006), this mechanism in plants has emerged only recently (Geldner & Robatzek 2008) and, so far, FLS2 is the only receptor involved in plant immunity shown to undergo endocytosis upon the specific stimulation with flg22 (Robatzek et al., 2006). The authors tested the effect of flg22 and elf 18, i.e. the peptides specifically recognized by FLS2 and EFR respectively, and oligogalacturonides with a degree of polymerization between 10 and 16 (OGs), which act as general elicitors of defense responses in several plants. Explants from agroinfiltrated Arabidopsis leaves at 2 dpi were treated with elicitors and then subjected to confocal microscopy analysis. […] Instead, when eJMC-expressing explants were stimulated with flg22, the fluorescent signal decreased by 25% and 40% after 20 min and 30 min, respectively (FIG. 3B).
The first chimeric receptor, indicated as WEG, comprised the WAK1 ectodomain fused to the TM-iJM-kinase portion of EFR and was designed to test the ability of the WAK1 ectodomain to perceive OGs and transmit the signal inside the cell. […] Both WEG and EWAK as well as WAK1 were fused to GFP and used in agroinfiltration experiments (FIG. 5A). […] Western-blot analysis using GFP-specific antibodies on proteins from IWF and microsomal fractions prepared from infiltrated leaves confirmed the plasma membrane localization of both fluorescent chimeras (FIG. 5D). The effect of OGs on the internalization of WEG was followed in agroinfiltrated Arabidopsis Col-0 leaves. […] This might be due to the inability of WEG to uncouple its ectodomain from pectins, since it is known that WAK1 strongly binds to pectin and only denaturing treatments allow its separation from cell wall (He et al., 1996). On the other hand, affinity studies have shown that WAK1 interact with cell wall pectins that are in a Ca^2+-induced conformation (i.e. the structures called “egg boxes”) and that the interaction is disrupted by adding a chelating agent such as EDTA (Decreux et al., 2005; Cabrera et al., 2008). The authors therefore tested whether OG-induced internalization of WEG occurred in the presence of 5 mM EDTA. WEG-expressing agroinfiltrated leaves were syringe-infiltrated with OGs and after 30 min the tissues were mounted in the presence of EDTA for confocal microscopy analysis. […]

[2] = tested on: agroinfiltrated leaves of N. tabacum ecotype SR1; assay: Receptor internalization in agroinfiltrated tobacco leaves; format: cell-based, Nicotiana tabacum; settings: 10 μM flg22, 30 min
Experimental: E) Relative variation of fluorescence in agroinfiltrated tobacco leaves expressing EFR, FLS2, eJMC and TMC and treated with 10 μM elfl8 or 10 μM flg22 for 30 min.
The GFP-dependent fluorescence was monitored from 2 to 4 days post infection in cells of the lower epidermis. Pieces of leaf were randomly cut from the infected area and mounted in water or supplemented with elicitors for microscopic observations. Flg22 and elfl8 were used at 10 μM while oligosaccharides were used at 100 μg/mL. Materials were analyzed using a Leica DM IRE epifluorescence microscope equipped with a digital cooled camera (DFC350FX R2; Leica). GFP fluorescence was excited with a 488-nm laser line, and emitted fluorescence was collected at 543-nm. The Leica Confocal Software and Adobe Photoshop 5.0 were used for post-acquisition image processing. All samples were imaged with the 40× or 100× oil objectives. Pictures were taken in Kahlman frame giving an average of 16 scans for the dynamics of internalization and 4 scans for the cellular localizations.
The behaviour of TMC and eJMC upon treatment with flg22 and elfl8 was also analysed in agroinfiltrated leaves of N. tabacum ecotype SR1 and compared to that of EFR and FLS2. […] Instead, in the eJMC expressing plants fluorescence decreased within 10-30 min after stimulation with flg22, at an extent similar to that observed in Arabidopsis, i.e. by 25% and 35% after 20 min and 30 min, respectively (FIG. 3E).

[3] = tested on: ethylene biosynthesis in tobacco leaves; assay: Induction of ethylene biosynthesis in agroinfiltrated tobacco leaf explants; format: cell-based, Nicotiana tabacum; settings: flg22, 2 h; compared with EFR-expressing explants as negative controls
Experimental: F) Induction of ethylene biosynthesis in agroinfiltrated tobacco leaves expressing the fluorescent EFR, FLS2, TMC, eJMC and eJMC^Y859A. NC: negative control, represented by agroinfiltrated leaf tissues expressing fluorescent EFR or FLS2 and elicited with flg22 or elfl8, respectively. Results are averages±standard error (n=3).
Excised infiltrated leaf sectors were stimulated for 2 h with water or the elicitor ([…] and 100 μg/ml for OGs). Values are means±s.e.m. (N=3).
E) Induction of ethylene biosynthesis in agroinfiltrated tobacco leaves expressing EFR, WAK1, WEG and EWAK. Each construct was stimulated for 2 h with elfl8 (10 μM) or OGs (100 μg/mL). NC: negative control, represented by agroinfiltrated leaf tissue expressing EFR or FLS2 when OGs or elfl8, respectively, were used for elicitation. Error bars indicate the standard error of three independent replicates.
(A) Induction of ethylene biosynthesis in agroinfiltrated tobacco explants expressing EFR, WAK1, WEG and EWAK. […] Agroinfiltrated leaf tissues expressing EFR or WEG and elicited with OGs or elfl8 respectively, represented our negative control. Values are means±s.e.m. (N=3). (B) Elicitor-induced gene expression in untransformed Col-0 and Col-0 efr plants, and in transgenic Arabidopsis Col-0 efr plants stably expressing WEG. Accumulation of At3g22270 and At4g37640 transcripts was analysed by semi-quantitative PCR, using the UBQ5 gene for normalization. Adult leaves were syringe-infiltrated with water, OGs (25 μg/ml) or elfl8 (10 μM) for 3 h. The experiment was repeated three times with similar results. The same experiment was performed in a second independent transgenic line expressing WEG with similar results.
Approximately 150 mg of tobacco agroinfiltrated leaf were cut in small slices and extensively washed with sterile distilled water. The explants were placed in sealed 10 mL flasks containing 2 mL of sterile water alone or supplemented with 100 mg L^−1 OGs, or 1 μM flg22 or 10 μM elfl8. 450 μl headspace samples were withdrawn from the vial after 2 h treatment and analyzed by gas chromatography-mass spectrometry using an Agilent 6850A gas chromatograph coupled to a 5973N quadrupole mass selective detector (Agilent Technologies, Palo Alto, Calif., USA). Chromatographic separations were carried out an HP Plot-Q fused-silica capillary column (30 m×0.32 mm i.d.) coated with polystyrene-divinylbenzene (film thickness 0.20 μm) as stationary phase. Injection mode: splitless at a temperature of 220° C. The initial temperature of the oven was held at 50° C. for 8 min then ramped to 220° C. at a rate of 15° C./min and held for 5 min. Helium was used as carrier gas at a constant flow of 1.0 ml/min. Mass spectra were collected both in full scan and in SIM mode monitoring the ions m/z m/z 26, m/z 27 and m/z 28 (ionization energy 70 eV; ion source 280° C.; ion source vacuum 10^−5 Torr).

[4] = tested on: RetOx, CYP81F2 and PAD3 transcripts; assay: Elicitor-induced accumulation of Ret-Ox, CYP81F2 and PAD3 transcripts, semi-quantitative PCR; format: cell-based, Arabidopsis thaliana; settings: flg22 1 μM, 30 minutes
Experimental: B) Elicitor induced accumulation of Ret-Ox, CYP81F2 and PAD3 transcripts analysed by semi-quantitative PCR, using the UBQ5 gene for normalization. Leaves were incubated with water, flg22 (1 μM), elfl8 (10 μM) or a generic peptide (10 μM) for 30 minutes. The experiment was repeated three times with similar results. The same experiment was performed in a second independent transgenic line expressing eJMC with similar results.
3,3′-diaminobenzidine (DAB) staining, callose deposition and gene resistance analysis were assayed as described (Galletti et al., 2008). For measuring active oxygen species released by tobacco agroinfiltrated plants after elicitor treatment, the authors used a modified luminol-dependent assay (Gomez et al., 1999). Slices, corresponding to approximately 30 mg fresh weight, were transferred to assay tubes containing 1 μM flg22 or 10 μM elfl8 in aqueous solution supplied with 40 μM luminol (SIGMA). Chemo-luminescence was measured in a liquid scintillation counter (LS-6500, Beckman) after 5 and 15 min upon addition of elicitors.
Fluorescent eJMC and FLS2 were also stably expressed in transgenic Arabidopsis ecotype Wassilewskija (Ws-0), which carries EFR but lacks a flg22 perception system (Gomez-Gomez et al., 1999, Bauer et al., 2001). Transformed T1 plants expressing the proteins, named eJMC plants and FLS2 plants, respectively, were selected by confocal microscopy analysis of adult rosette leaves. […] Fluorescence was detected only in adult rosette leaves, likely due to a low expression level of the receptor at the different developmental stages.

| Substance | decrease in fluorescence upon treatment with flg22 [1] | internalization after stimulation with flg22 [2] | ethylene release induced by flg22 [3] | expression of RetOx, CYP81F2 and PAD3 in untransformed Ws-0 plants [4] |
| --- | --- | --- | --- | --- |
| TMC: chimera (Ala817FLS2-Leu661EFR): FLS2 LRR, eJM and N-terminal half of TM fused to C-terminal half of EFR TM, iJM and kinase | did not show any decrease in fluorescence | Neither FLS2 nor TMC underwent internalization | only a weak response | – |
| QRLSTGSRINSAKDDAAGLQIA [flg22] | – | – | – | not in the untransformed plants |
